Test system: proteolytic enzymes in combined urine samples of patients (urothelial epithelial neoplasms)
Assay: Effect of protease inhibitors on hydrolysis of ABZ-Leu-Glu-Pro-Val-ANB-NH2 in combined urine samples of patients
Assay type: biochemical, human
Details: inhibitor concentrations as in Table 1; fig. 3
Description: Proteolytic activity is dependent on the presence of specific compounds called inhibitors (proteolytic enzymes). Their incubation with a given biological material allows us to pre-determine the class of enzymes present in the tested samples. For this purpose, we have added effective inhibitory concentrations of certain classes of proteolytic enzymes to the combined urine samples of the ill persons - patients (urothelial epithelial neoplasms, in particular tumor).

AHX-VYDnV^P(C4H2Cl)2
inhibition of hydrolysis of ABZ-Leu-Glu-Pro-Val-ANB-NH2: complete inhibition of hydrolysis

Reference: EP3431490B1, “CHEMICAL COMPOUNDS FOR USE AS DIAGNOSTIC MARKERS OF INFLAMMATION AND NEOPLAMS, THE METHOD FOR SYNTHESIS OF THE CHEMICAL COMPOUNDS, DIAGNOSTIC KIT FOR USE IN DIAGNOSIS OF INFLAMMATORY PROCESSES AND EPITHELIAL NEOPLASMS AND IN VITRO DIAGNOSTIC METHOD OF INFLAMMATORY PROCESSES AND EPITHELIAL NEOPLASMS” (Uniwersytet Gdanski, priority 2017, dated 2019)
